# In US10995068B2, “Synthetic sphingolipid-like molecules, drugs, methods of their synthesis and methods of treatment” (The Regents of the University of California, priority 2015, dated 2021):
# Assays:
# [1] = tested on: colon cancer cells SW620; assay: Colony formation assay, SW620; type: cell-based, human; settings: anchorage-independent growth, colonies counted after 12 days
# Description: The difference in sensitivity stems from the inability of neoplastic cells to adapt to decreases of metabolism.
# Cell analysis: Viability and 4F2hc expression are determined by vital dye exclusion and flow cytometry. Oxygen consumption is measured with an XF24 Extracellular Flux Analyzer (Seahorse Bioscience); values are normalized to total protein. Confocal microscopy is performed on either a Zeiss LSM780 or a Nikon Eclipse Ti; vacuolation was monitored using a Nikon TE2000-S equipped with DIC filters. Anchorage-independent growth of SW620 cells is measured in DMEM-10 containing 0.35% agarose with a 0.5% agarose bottom layer. PBMNCs are obtained from the normal blood donor program run by the CTSA-supported Institute for Clinical and Translational Science at UCI under IRB protocols 2015-1883 (Edinger) and 2001-2058 (ICTS). […] Plates were incubated at 37° C. in a humidified atmosphere containing 5% CO2 and colonies were counted after 12 days.
# Cell culture and reagents. […] Cell viability was measured by vital dye exclusion using either propidium iodide or DAPI at 1 μg/ml. Analysis of cell surface 4F2hc levels with PE-conjugated anti-CD98 was restricted to viable cells as determined by DAPI exclusion. Anchorage-independent growth of SW620 cells was measured in DMEM-10 containing 0.35% low melt agarose with a 0.5% agarose bottom layer. […]
# [2] = biological target: T1, PIKfyve (Homo sapiens, UniProt Q9Y2I7); assay: PIKfyve in vitro kinase assay; type: biochemical; settings: FLAG-PIKfyve
# T1 construct: made in house; host or cells: HEK293T cells
# T1 sequence (Q9Y2I7 whole entry, species assumed): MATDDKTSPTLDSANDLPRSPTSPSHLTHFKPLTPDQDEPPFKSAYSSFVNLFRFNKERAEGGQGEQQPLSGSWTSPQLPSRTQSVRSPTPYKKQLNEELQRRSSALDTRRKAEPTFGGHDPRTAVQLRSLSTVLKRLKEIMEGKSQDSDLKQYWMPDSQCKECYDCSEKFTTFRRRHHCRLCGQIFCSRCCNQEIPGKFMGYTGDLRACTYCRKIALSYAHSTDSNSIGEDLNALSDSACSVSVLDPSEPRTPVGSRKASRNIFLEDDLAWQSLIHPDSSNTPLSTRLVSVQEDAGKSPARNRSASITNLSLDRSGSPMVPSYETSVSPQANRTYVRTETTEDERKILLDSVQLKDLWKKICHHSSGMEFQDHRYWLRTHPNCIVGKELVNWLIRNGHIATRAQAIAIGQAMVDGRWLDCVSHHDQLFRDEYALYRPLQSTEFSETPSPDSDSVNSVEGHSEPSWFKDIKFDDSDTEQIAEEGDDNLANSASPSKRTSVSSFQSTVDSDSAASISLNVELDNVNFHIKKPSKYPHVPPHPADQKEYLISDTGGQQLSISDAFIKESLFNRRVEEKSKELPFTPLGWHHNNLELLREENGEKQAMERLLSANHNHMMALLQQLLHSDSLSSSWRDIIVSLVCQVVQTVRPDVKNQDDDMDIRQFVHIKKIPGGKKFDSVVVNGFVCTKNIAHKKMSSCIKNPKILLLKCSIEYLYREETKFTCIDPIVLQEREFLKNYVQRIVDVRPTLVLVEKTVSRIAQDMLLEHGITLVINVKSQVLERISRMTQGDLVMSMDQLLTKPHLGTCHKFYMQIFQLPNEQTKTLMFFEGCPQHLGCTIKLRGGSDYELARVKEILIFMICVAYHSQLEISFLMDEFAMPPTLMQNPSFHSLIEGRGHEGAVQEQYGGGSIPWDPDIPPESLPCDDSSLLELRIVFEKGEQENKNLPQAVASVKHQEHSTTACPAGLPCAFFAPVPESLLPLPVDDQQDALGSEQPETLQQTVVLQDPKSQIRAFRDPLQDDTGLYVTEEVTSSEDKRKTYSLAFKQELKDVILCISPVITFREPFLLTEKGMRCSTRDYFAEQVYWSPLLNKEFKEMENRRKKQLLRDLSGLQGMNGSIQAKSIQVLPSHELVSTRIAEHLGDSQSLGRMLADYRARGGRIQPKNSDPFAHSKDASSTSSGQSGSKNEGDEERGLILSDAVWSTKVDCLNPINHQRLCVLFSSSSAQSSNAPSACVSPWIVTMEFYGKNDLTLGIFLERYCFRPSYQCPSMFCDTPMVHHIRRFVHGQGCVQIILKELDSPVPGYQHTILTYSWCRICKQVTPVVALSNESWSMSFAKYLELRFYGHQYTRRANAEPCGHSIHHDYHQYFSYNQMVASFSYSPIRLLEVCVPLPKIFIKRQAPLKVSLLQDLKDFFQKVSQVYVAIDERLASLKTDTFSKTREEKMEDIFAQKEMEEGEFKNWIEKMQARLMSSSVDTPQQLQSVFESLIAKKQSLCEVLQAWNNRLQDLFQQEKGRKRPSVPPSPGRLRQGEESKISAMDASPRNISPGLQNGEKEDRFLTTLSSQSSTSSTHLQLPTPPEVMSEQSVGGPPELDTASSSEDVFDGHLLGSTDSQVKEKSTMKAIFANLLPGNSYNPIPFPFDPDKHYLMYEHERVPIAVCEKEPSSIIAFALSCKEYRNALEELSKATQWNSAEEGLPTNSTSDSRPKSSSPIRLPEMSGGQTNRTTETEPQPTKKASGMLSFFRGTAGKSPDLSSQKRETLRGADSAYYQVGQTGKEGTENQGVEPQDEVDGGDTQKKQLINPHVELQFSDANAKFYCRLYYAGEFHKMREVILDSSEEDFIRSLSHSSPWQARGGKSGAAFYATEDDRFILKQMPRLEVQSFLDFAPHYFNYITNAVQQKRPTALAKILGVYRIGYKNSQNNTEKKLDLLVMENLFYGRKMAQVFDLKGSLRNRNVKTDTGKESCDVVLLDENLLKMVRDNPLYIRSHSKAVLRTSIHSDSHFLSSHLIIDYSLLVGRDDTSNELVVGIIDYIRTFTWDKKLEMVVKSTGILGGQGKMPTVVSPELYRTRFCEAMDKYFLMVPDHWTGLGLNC
# Excerpt: In certain embodiments of the invention, sphingolipid-like molecules mis-localize PIKfyve preventing its association with TRMPL1 and inducing vacuolation, instead of inhibiting PIKfyve kinase activity. While PIKfyve localized to the limiting membrane of YM201636-induced vacuoles as expected, PIKfyve was present in clumps between vacuoles in FTY720-treated cells (FIGS. 57C and 56F).
# PIKfyve in vitro kinase assay. FLAG-PIKfyve was expressed in HEK293T cells, purified with FLAG-beads, and eluted with FLAG peptides. PI3P and phosphatidylserine (C16) liposomes were generated by sonication in 2× lipid mixture buffer [40 mM Tris-HCl (pH 7.4), 200 mM NaCl, 1 mM EGTA] with or without FTY720. FLAG-PIKfyve and lipid mixtures were incubated with Mg^2+-ATP solution [6.5 mM HEPES (pH 7.3), 2.5 mM MnCl2, 10 mM MgCl2, 1 mM β-glycerophosphate, 0.1 mM ATP and [^32P]-γ-ATP] for 15 min at RT. The reaction was stopped by adding 4 M HCl, and phosphoinositides were extracted with methanol/chloroform (1:1). Phosphoinositides were spotted on silica thin-layer chromatography plates and separated with 2 M acetic acid/1-propanol (35:65). Membranes were dried, exposed to a Phospho Imager, and the counts from PI(3,5)P2 spots quantified with ImageQuant.
PIKfyve kinase activity [2],Compound,sensitivity in colony formation assays [1]
–,"CCCCCCCCc1ccc([C@H]2CCN[C@@H]2CO)cc1.Cl [Compound 5, (2S,3R)-2-(hydroxymethyl)-3-(4-octylphenyl)Pyrrolidinium chloride]",highly sensitive
did not inhibit PIKfyve kinase activity,"CCCCCCCCc1ccc(CCC(N)(CO)CO)cc1.Cl [FTY720, 2-Amino-2-[2-(4-octylphenyl)ethyl]propane 1,3-diol hydrochloride, reference compound]",–
